This is an account of results in article PMC11162469, “Discovery of RXFP2 genetic association in resistant hypertensive men and RXFP2 antagonists for the treatment of resistant hypertension” (Scientific Reports, 2024).

Bridge positions count the residues as written; N and C are the ends. Ends that are not written are not given here. I, II: the chains in the order shown.

Assay [1] has as its target T1, rat RXFP2 (Rattus norvegicus, UniProt F7EMH8). Briefly: INSL3-stimulated CYP11B2 mRNA expression in H295R stably expressing rat RXFP2. The arrangement: expressed in transfected cells. As to conditions: 48 h of treatment; read-out: EC50 on CYP11B2 mRNA expression, H295R-rRXFP2. It counts as cell-based. As for the experimental part: (§1) RXFP2 antagonists were added to H295R-rRXFP2 before addition of INSL3 EC80 (3.5 nM) for 48 h, whereupon the cells and supernatants were collected. CYP11B1 and CYP11B2 mRNA were determined by qPCR and the RXFP2 blocker potencies were calculated (Fig. 5a). Fifteen antibodies have IC50s < 50 nM, and three of the top antibodies (1F2, 4G6, and 2D4) were selected for evaluation in steroid hormone secretion assays by ELISA.
(§2) Data entered as XY table, with x = [Inhibitor] (nM) and y = CYP11B2 or CYP11B1 fold change.

The target of assay [2] is T2, RXFP2 (Homo sapiens, UniProt Q8WXD0). Briefly: INSL3-stimulated cAMP assay in HEK293 stably expressing human RXFP2. (cAMP levels reflect the balance of adenylyl cyclase and phosphodiesterase activity.)
T2 sequence (Q8WXD0 whole entry): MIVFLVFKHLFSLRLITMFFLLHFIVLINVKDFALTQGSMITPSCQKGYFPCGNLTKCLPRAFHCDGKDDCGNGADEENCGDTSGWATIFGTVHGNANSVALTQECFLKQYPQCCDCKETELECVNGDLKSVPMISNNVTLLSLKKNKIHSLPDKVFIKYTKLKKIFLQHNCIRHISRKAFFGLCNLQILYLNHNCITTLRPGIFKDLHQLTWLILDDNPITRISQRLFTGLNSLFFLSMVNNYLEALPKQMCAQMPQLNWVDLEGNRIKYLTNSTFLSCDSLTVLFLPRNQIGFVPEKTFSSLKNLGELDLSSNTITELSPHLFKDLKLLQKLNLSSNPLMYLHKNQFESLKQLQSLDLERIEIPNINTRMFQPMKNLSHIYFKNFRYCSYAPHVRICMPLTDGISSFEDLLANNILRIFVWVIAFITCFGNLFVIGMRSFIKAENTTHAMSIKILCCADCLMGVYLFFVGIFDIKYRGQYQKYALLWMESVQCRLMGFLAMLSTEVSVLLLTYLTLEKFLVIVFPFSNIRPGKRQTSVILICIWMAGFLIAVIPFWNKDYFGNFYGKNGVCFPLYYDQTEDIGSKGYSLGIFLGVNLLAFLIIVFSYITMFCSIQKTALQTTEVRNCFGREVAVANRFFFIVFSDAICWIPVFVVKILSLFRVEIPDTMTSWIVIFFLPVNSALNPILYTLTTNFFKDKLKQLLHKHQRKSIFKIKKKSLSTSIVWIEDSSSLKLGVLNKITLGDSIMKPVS
Description: RXFP activity assays were developed in HEK293 with stable expression of RXFP2 or RXFP1.
The same approach was used to generate stable HEK293 lines expressing human and rat RXFP1 and RXFP2 cDNA. The cAMP assay was conducted using the Eurofin Hithunter kit per manufacturer’s instructions in a 384-well format. All dose curve fitting and EC50 and IC50 determinations were performed in Prism (v9.3.0) using the non-linear fit, variable slope (four parameter) function.
Assay [3] concerns the target T2, RXFP2. Briefly: INSL3-stimulated cAMP assay in HEK293 with BacMam expression of human RXFP2. The class given is cell-based. More on the design: expressed in transfected cells; host or cells: HEK293-MSRII, BacMam transduction (MOI 5). As to conditions: HTRF primary assay, read-out: EC50 cAMP in HEK293 expressing human RXFP2. An excerpt:
A high throughput screen (HTS) assay was developed using HEK293 cells transduced with RXFP2 via baculovirus-mediated gene transfer (BacMam)[40]. […] The HTS campaign identified 104 hits across 8 clusters showing blockade of hRXFP2.
The nucleotide sequences used in Bacmam transfections encoded RXFP protein as described in UniProt (Q9HBX9. RXFP1_human; Q8WXD0. RXFP2_human; Q5ECL0. RXFP2_rat). HEK293- MSRII cells were maintained in DMEM‐F12, supplemented with 10% fetal bovine serum (FBS) and L-glutamine at 37 °C/5% CO2. HEK293 stably expressing Gα16 were maintained in DMEM‐F12, supplemented with 10% FBS, L-glutamine and selection antibiotics at 37 °C/5% CO2. Transient receptor expression was achieved using modified baculoviruses (BacMam), generated according to manufacturer’s instructions using the Bac-to-Bac system (Invitrogen, UK) encoding hRXFP1, hRXFP2 or rRXFP2. Cells were transduced with RXFP-BacMam at an optimized multiplicity of infection (MOI) of 5.
(§3) cAMP generation was measured using the Lance Ultra cAMP kit as per manufacturer’s instructions (Perkin Elmer) in HEK293 cells transduced in tissue culture flasks with RXFP BacMam, incubated at 37 °C/5% CO2 for 18 h before assay. […] After a 30 min incubation, 4 µL of Lance detection reagent was added and the FRET signal read 1 h later using a TR-FRET-capable plate reader, with excitation at 340 nm and emission at 615 nm and 665 nm. […]

Assay [4] has as its target T1, rat RXFP2. Briefly: INSL3-stimulated cAMP assay in HEK293 stably expressing rat RXFP2.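 Note: cAMP measured with an HitHunter kit in 384-well plates, 11-point dose–response curves up to 1 µM antibody, four-parameter variable-slope fit.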
In assay [5] the test system is rat RXFP2. Kind of assay: INSL3-stimulated cAMP assay in HEK293 with BacMam expression of rat RXFP2. The class given is cell-based. As to conditions: read-out: EC50 cAMP in HEK293 transiently expressing rat RXFP2. As for the experimental part: Active compounds (RXFP2 HTRF IC50 < 100 µM, RXFP2 FLIPR IC50 < 100 µM) were profiled to determine selectivity and rat cross-reactivity (Fig. 2). The RXFP1 assay detected compound inhibition of relaxin EC80-induced cAMP in HEK293 transiently expressing human RXFP1 (hRXFP1). […] Only 7 of 104 compounds had rRXFP2 IC50 < 100 µM, indicating poorly conserved receptor binding sites across species. RXFP2 blockers were organized into two potential series, based on structural similarity. […] BRL-37274 and GSK618069 were identified as selective RXFP2 antagonists. […] Ultimately, poor chemical properties and low ligand efficiency limited further compound optimization (Table 1, Supplementary Figs. S6, S7).
The nucleotide sequences used in Bacmam transfections encoded RXFP protein as described in UniProt (Q9HBX9. RXFP1_human; Q8WXD0. RXFP2_human; Q5ECL0. RXFP2_rat). […]
as §3

In assay [6] the target is T1, rat RXFP2. Briefly: INSL3-stimulated CYP11B1 mRNA expression in H295R stably expressing rat RXFP2. It counts as cell-based. The arrangement: expressed in transfected cells. As to conditions: 48 h of treatment; read-out: EC50 on CYP11B1 mRNA expression, H295R-rRXFP2. As for the experimental part: as §1, §2
Assay [7] has as its target T2, RXFP2. Kind of assay: cell-based.
Description: Resulting molecules were counter screened against parental HEK293 to remove compounds inhibiting cAMP with < tenfold selectivity compared to RXFP2 expressing cells. An orthogonal readout was utilized to confirm RXFP2 antagonist activity; whereby RXFP2 was transiently expressed in HEK293 stably expressing a member of the Gαq G protein family (murine Gα16) to induce promiscuous G-protein coupling and subsequent calcium mobilization.
For the RXFP2 orthologue assay, calcium detection was measured using FLIPR assay technology in HEK293‐ MSRII Gα16 cells. Cells were resuspended in fresh cell culture media in the presence of RXFP2 BacMam and seeded at a density of 15,000 cells/well in 50 µL into black clear‐bottomed 384‐well plates and incubated at 37 °C/5% CO2 for 24 h prior to assay. Media from wells was aspirated and replaced with 30 µL/well of assay buffer (HBSS, 25 mM HEPES, pH 7.4) supplemented with dye-loading reagents (30 µM probenecid, 3 µM Fluo‐4 and 750 µM Brilliant Black). Plates were incubated for 1 h at 37 °C/5% CO2. Test compounds were added to dye-loaded cells at 10 µL/well and incubated for 10 min. Agonist stimulation was induced with the addition of 10 µL/well assay buffer supplemented with a final EC80 concentration of ligand (2.4 nM INSL3). Fluorescence was detected immediately using a FLIPR TETRA plate reader, with excitation at 488 nm and emission at 530 nm. […]

T1 sequence (F7EMH8 20-737): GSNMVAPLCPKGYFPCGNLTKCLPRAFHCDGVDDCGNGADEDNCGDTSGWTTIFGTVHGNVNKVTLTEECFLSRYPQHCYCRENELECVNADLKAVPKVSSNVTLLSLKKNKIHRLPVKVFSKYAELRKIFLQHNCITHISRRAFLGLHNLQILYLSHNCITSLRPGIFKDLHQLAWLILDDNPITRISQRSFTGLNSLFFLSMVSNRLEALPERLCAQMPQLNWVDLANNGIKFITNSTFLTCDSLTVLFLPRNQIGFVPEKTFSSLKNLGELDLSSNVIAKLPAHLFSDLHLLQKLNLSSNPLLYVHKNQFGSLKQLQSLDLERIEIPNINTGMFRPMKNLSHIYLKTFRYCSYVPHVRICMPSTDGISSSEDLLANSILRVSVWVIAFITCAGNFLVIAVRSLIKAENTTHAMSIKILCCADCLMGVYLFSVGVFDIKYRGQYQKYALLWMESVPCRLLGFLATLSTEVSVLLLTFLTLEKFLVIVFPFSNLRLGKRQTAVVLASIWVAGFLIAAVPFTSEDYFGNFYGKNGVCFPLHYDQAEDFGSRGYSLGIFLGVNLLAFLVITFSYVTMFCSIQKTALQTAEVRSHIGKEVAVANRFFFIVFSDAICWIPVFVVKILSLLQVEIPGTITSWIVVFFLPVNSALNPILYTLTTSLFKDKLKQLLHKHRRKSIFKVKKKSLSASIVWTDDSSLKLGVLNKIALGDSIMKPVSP

One may read the EC50 as the midpoint of the concentration-response curve. As to “I: PTPEMREKLCGHHFVRALVRVCGGPRWSTEA / II: AAATNPARYCCLSGCTQQDLLTLCPY (disulfide I:10-II:11, I:22-II:24, II:10-II:15) [INSL3, Insulin-like peptide 3]”, the EC50 on rat RXFP2 [1] was determined as 0.4 nM; on RXFP2 [2] it was 2.9 nM; on RXFP2 [3] it was 0.048 nM; at rat RXFP2 [4] it was 8.4 nM; with rat RXFP2 [5], 13 nM; on rat RXFP2 [6] it was 0.3 nM. On RXFP2 [7], this substance displayed an EC50 of 13.4 nM.
